Reference: patent US11000501B2, “Composition for preventing or treating neurological and mental disorders, containing syringaresinol” (SEOUL NATIONAL UNIVERSITY R&DB FOUNDATION, priority 2016, dated 2021)

System: Schaffer collateral (SC)-CA1 synapse of the hippocampus
Assay: fEPSP recording in hippocampal SC-CA1 synapse (hippocampal slices)
Type: cell-based, mouse
Conditions: 10 μM, applied after SYR
Method: A hippocampus slice (400 μm thick) was prepared in a cold dissection buffer using a vibrating machine (Vibratome, Leica, Germany) and then a CA3 region of each slice was removed surgically immediately after the slice formation. In this connection, the cold dissection buffer contained sucrose 230 mM; NaHCO3 25 mM; KCl 2.5 mM; NaH2PO4 1.25 mM; D-glucose 10 mM; Na-ascorbic acid salt 1.3 mM; MgCl2 3 mM; CaCl2 0.5 mM, 95% O2/5% CO2 and had pH 7.4. The slice was recovered in a normal ACSF (artificial cerebrospinal fluid) for 1 hour and then maintained at room temperature (23 to 25° C.) until recording. […] All electrophysiological experiments were performed in a recording chamber while the samples were immersed in the solution in a manner described previously (Song et al., 2017). Signals were amplified using a MultiClamp 700B amplifier (Molecular Devices, CA, USA) at a cut-off frequency of 2.8 kHz and were measured with a Digidata 1440A interface (Molecular Devices) at a 10 kHz sampling frequency. Data were collected using pClamp 10.2 (Molecular Devices) software. The collected data were analyzed with a program created in the lab using Igor Pro (WaveMetrics, OR, USA). To record the field excitatory post-synaptic potential (fEPSP) in the hippocampal SC-CA1 synapse, hippocampal slices were placed in the recording chamber and perfused with ACSF while oxygen was fed continuously to the ACSF. The ACSF was maintained at a temperature of 29 to 30° C. using a heater for perfusion (SH-27B, Warner Instruments, CT, USA). A synapse response was induced by stimulation with a glass pipette (0.3 to 0.5 Mohm) every 20 seconds (0.05 Hz). The synapse response was recorded using a glass pipette (3 to 4 Mohm) filled with ACSF. The intensity of the stimulus was adjusted to produce a synapse response of about ⅓ of the maximum value thereof. The slices with unstable (10%) baseline records were excluded. To investigate the effect of syringaresinol (SYR) on the synaptic transmission, the field excitatory post-synaptic potential (fEPSP) of the Schaffer collateral (SC)-CA1 synapse of the hippocampus of adult mice (4 to 6 weeks of age) was measured. After confirming the stable baseline, different concentrations of SYR were applied thereto using the perfusion solution.

NS(=O)(=O)c1cccc2c1c([N+](=O)[O-])cc1nc(O)c(O)nc12 [NBQX, reference compound]
block of the synaptic response (fEPSP): completely blocked
